Literature values, collected in patent US6794359B2, “Vertebrate intestinal protein which absorbs cholesterol, its inhibitors and mehtod of identifying the same” (Aventis Pharma Deutschland GmbH, priority 2000, dated 2004).
Where two headings read alike, the source gives them in different places.

Key:
[1] = tested on: intestinal cholesterol absorption; conditions: rhesus monkeys
[2] = tested on: intestinal cholesterol absorption; conditions: rabbits
[3] = tested on: intestinal cholesterol absorption; conditions: dogs
[4] = tested on: intestinal cholesterol absorption; conditions: hamsters
[5] = tested on: intestinal cholesterol absorption; conditions: humans

COc1ccc([C@@H]2[C@@H](CCCc3ccccc3)C(=O)N2c2ccc(OC)cc2)cc1 [SCH 48461]
inhibition of intestinal cholesterol absorption [1]: very efficiently inhibits | inhibition of intestinal cholesterol absorption [2]: very efficiently inhibits | inhibition of intestinal cholesterol absorption [3]: very efficiently inhibits | inhibition of intestinal cholesterol absorption [4]: very efficiently inhibits | inhibition of intestinal cholesterol absorption [5]: very efficiently inhibits

CC[C@H](CC[C@@H](C)[C@H]1CC[C@H]2[C@@H]3CC=C4C[C@@H](O)CC[C@]4(C)[C@H]3CC[C@]12C)C(C)C [β-sitosterol]
inhibition of cholesterol absorption ([5]; background statement): an inhibition of cholesterol absorption

O=C1[C@H](CC[C@H](O)c2ccc(F)cc2)[C@@H](c2ccc(O)cc2)N1c1ccc(F)cc1 [SCH 58235]
increase of effect on direct comparison ([4]; direct comparison with SCH 48461): 50 fold
